Among the test systems are 786-0 renal; CCRF-CEM leukemia; HCC-2998 colon; HL-60(TB) leukemia; LOX IMVI melanoma; MCF7 breast; MDA-MB-435; PC-3 prostate; SF-268 CNS; UACC-62 melanoma.
Common to all, as to assay: NCI tumour cell line growth inhibition, 48 h

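Cultured in 96-well plates, cells were exposed to test compound for 48 hours across five concentrations. At the TGI there is no net growth.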 A value given as a limit tells only on which side of the number the result lay.

In the case of `COCCCNc1c2ccccc2nc2ccccc12`, the TGI in the assay with 786-0 renal worked out at 17.9 µM; in the assay with CCRF-CEM leukemia, 60.6 µM; in the assay on HCC-2998 colon, 4.58 µM; in the assay with HL-60(TB) leukemia, 15.2 µM; with LOX IMVI melanoma, 5.67 µM; in the assay with MCF7 breast, 5.27 µM. Further, the TGI with MDA-MB-435 is 12.7 µM; in the assay on PC-3 prostate, 5.68 µM; with SF-268 CNS, 16.8 µM; in the assay on UACC-62 melanoma, 6.35 µM.
For the compound `O=C1c2ccccc2C(=O)N1NC1=NCCN1`, the TGI with 786-0 renal, with CCRF-CEM leukemia, with HCC-2998 colon, in the assay with HL-60(TB) leukemia, in the assay with LOX IMVI melanoma and in the assay on MCF7 breast was > 100 µM throughout. For the same compound, the TGI in the assay on MDA-MB-435, in the assay with PC-3 prostate, in the assay on SF-268 CNS and in the assay on UACC-62 melanoma was > 100 µM throughout.
For the compound `CC/C=C\C=C/C(=O)N/C=C/CCC`, the TGI with 786-0 renal, in the assay with CCRF-CEM leukemia, in the assay with HCC-2998 colon, in the assay with HL-60(TB) leukemia, in the assay on LOX IMVI melanoma and in the assay on MCF7 breast was > 100 µM each time. Besides, the TGI with MDA-MB-435, in the assay with PC-3 prostate, with SF-268 CNS and in the assay with UACC-62 melanoma was > 100 µM in each case.
Regarding `CN(Cc1cnc2nc(N)nc(N)c2n1)c1ccc(C(=O)NCCCC(=O)O)cc1`, the TGI in the assay with 786-0 renal, in the assay with CCRF-CEM leukemia, with HCC-2998 colon, in the assay on HL-60(TB) leukemia, in the assay with LOX IMVI melanoma and in the assay with MCF7 breast was > 100 µM in each case. In addition, the TGI with MDA-MB-435, in the assay with PC-3 prostate, with SF-268 CNS and with UACC-62 melanoma was > 100 µM in each case.
As for `C/C(=N\O)c1cccc(Nc2c3ccccc3nc3occc23)c1`, the TGI in the assay on 786-0 renal is 28.3 µM; in the assay on CCRF-CEM leukemia, > 100 µM; in the assay on HCC-2998 colon it was 52.4 µM; in the assay on HL-60(TB) leukemia it was > 100 µM; in the assay on LOX IMVI melanoma it was > 100 µM; in the assay on MCF7 breast, 34 µM. For the same compound, the TGI in the assay with MDA-MB-435 is 5.73 µM; in the assay on PC-3 prostate, > 100 µM; in the assay with SF-268 CNS, 56.9 µM; with UACC-62 melanoma, 49.1 µM.
For the compound `OCC1OC(n2cnc3c(Cl)nc(Nc4ccc(Cl)c(Cl)c4)nc32)CC1O` (stereo not given), the TGI in the assay with 786-0 renal came to 19.4 µM; in the assay with CCRF-CEM leukemia, 18.1 µM; with HCC-2998 colon it was 17.1 µM; in the assay on HL-60(TB) leukemia, 16.4 µM; in the assay on LOX IMVI melanoma, 16 µM; with MCF7 breast, 27.5 µM. Moreover, the TGI in the assay on MDA-MB-435 turned out to be 22.3 µM; in the assay on PC-3 prostate, 37.1 µM; with SF-268 CNS, 28.6 µM; with UACC-62 melanoma it was 17.2 µM.
With `NS(=O)(=O)c1ccc(NC(=O)c2ccc3nc4ccccc4c(Nc4ccc(S(N)(=O)=O)cc4)c3c2)cc1`, the TGI with 786-0 renal, with CCRF-CEM leukemia, in the assay on HCC-2998 colon, with HL-60(TB) leukemia, in the assay with LOX IMVI melanoma and with MCF7 breast was > 100 µM in each case. Besides, the TGI in the assay with MDA-MB-435, in the assay with PC-3 prostate, with SF-268 CNS and with UACC-62 melanoma was > 100 µM in each case.
`C=C(C)COc1cc(NC(=S)OC(C)C)ccc1Cl`: the TGI was found to be 30.5 µM in the assay on 786-0 renal; 39.2 µM in the assay on CCRF-CEM leukemia; 29.5 µM in the assay on HCC-2998 colon; 35.9 µM in the assay on HL-60(TB) leukemia; 30.4 µM in the assay with LOX IMVI melanoma; 29.3 µM with MCF7 breast. Besides, the TGI is 28.6 µM with MDA-MB-435, 28.6 µM with PC-3 prostate, 40.6 µM with SF-268 CNS and 32.7 µM in the assay with UACC-62 melanoma.
Regarding `CN1CCN(c2n[nH]c(=O)c3c2nnn3C2CCCCC2)CC1`, the TGI in the assay on 786-0 renal, with CCRF-CEM leukemia, in the assay with HCC-2998 colon, with HL-60(TB) leukemia, in the assay on LOX IMVI melanoma and in the assay on MCF7 breast was > 100 µM in each case. Also, the TGI with MDA-MB-435, in the assay on PC-3 prostate, in the assay on SF-268 CNS and in the assay on UACC-62 melanoma was > 100 µM each time.
For `Nc1ccc(C2SCC(=O)N2NS(=O)(=O)c2cccc(C(=O)O)c2)cc1` (stereo not given), the TGI in the assay on 786-0 renal, in the assay on CCRF-CEM leukemia, in the assay with HCC-2998 colon, in the assay with HL-60(TB) leukemia, in the assay with LOX IMVI melanoma and with MCF7 breast was > 100 µM throughout. Moreover, the TGI with MDA-MB-435, in the assay on PC-3 prostate, in the assay with SF-268 CNS and with UACC-62 melanoma was > 100 µM each time.
`CC(C)C(=O)/C=C/c1c(Cl)cccc1Cl`: the TGI in the assay on 786-0 renal is 20.1 µM; with CCRF-CEM leukemia it was > 100 µM; with HCC-2998 colon it was 29 µM; with HL-60(TB) leukemia it was > 100 µM; with LOX IMVI melanoma, 7.32 µM; in the assay on MCF7 breast it was 15.8 µM. Besides, the TGI came to 14.7 µM in the assay on MDA-MB-435, 24.4 µM in the assay on PC-3 prostate, 10.5 µM with SF-268 CNS and 19.1 µM in the assay on UACC-62 melanoma.

For the origin of these results see PubChem BioAssay (NCI).
